Assay [1] has as its system upregulation of CD11b in GROα stimulated neutrophils in human whole blood. The assay can be described thus: Human whole blood assay (CD11b upregulation). The format is cell-based. The conditions noted are these: Homo sapiens, Neutrophil, inhibition of CD11b upregulation, GROα 33 nM final, flow cytometry, read-out: pIC50 (human whole blood assay) (converted). The gist of the method: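 Heparinised human whole blood preincubated 15 min at 37 °C with compound (10-point, 1:3 dilutions), then stimulated with 33 nM final GROα for 15 min at 37 °C. CD11b-FITC/CD16-PE staining on ice, lysis/fixation, flow cytometry; neutrophils gated by side scatter and CD16.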
A general note: In flow cytometry, cells or beads pass a laser one at a time.

For assay [2], the system named is Rat oligodendrocyte precursor cells (OPCs). The experiment in a line: OPC differentiation assay. Format: cell-based. The settings on record: percentage of MBP+ cells. The procedure: In the oligodendrocyte precursor cell (OPC) in vitro differentiation assay, purified or enriched OPCs are cultured and differentiated into immature oligodendrocytes, mature oligodendrocytes, and myelinating oligodendrocytes (Watkins et al. (2008) Neuron 60:555-569). Specific markers have been identified for each specific stage of OPC differentiation. Myelin basic proteins (MBP), a specific marker for matured and myelinating oligodendrocytes, is used as an indicator for OPC differentiation and maturation (Franklin et al. (2008) J Neurosci, 255 Suppl 1:19-25). The OPC differentiation assay provides a tool to screen the compounds with the potency of promoting OPC differentiation, which is an initial step for downstream remyelination repair in vivo after demyelination occurs in mutiple scelerosis (MS) patients.
Rat oligodendrocyte precursor cells (OPCs) were obtained from P1 pups and were cultured in DMEM/20S medium (DMEM with 20% FBS, 4 mM L-Glutamine, 1 mM sodium pyruvate and penicillin) (Zhang et al. (2007) Nature Protocol 2 (5):1044). […] The plate was read on Cellomics (SN: 04080019LH; P/N no 1-0117) using target activation protocol to calculate the percentage of MBP+ cells to reflect the differentiation of OPCs.

On to `CC1=CCC[C@H]1NC(=O)Nc1ccc(Cl)c(S(=O)(=O)[C@@]2(C)CCOC2)c1O` [Compound 195, 1-(4-chloro-2-hydroxy-3-(((S)-3-methyltetrahydrofuran-3-yl)sulfonyl)phenyl)-3-((R)-2-methylcyclopent-2-en-1-yl)urea], for which the IC50 in assay [1] is 0.0398 µM; in assay [2] (Oligodendrocyte precursor cell, read-out: pIC50 (OPC differentiation assay) (converted)) it was 6.31 µM. Further, the OPC differentiation entry in assay [2] was “promote OPC differentiation”.
